From patent US20240424477A1, “SYSTEM AND DEVICES FOR REMOVAL OF CONTAMINATES” (priority 2021, published 2024)

Columns and labels:
[1] = conventional drinking water treatment, literature; cited from earlier work
MO protein = test: 19F NMR protein-ligand binding (peak height ratio B); set-up: species or system Moringa oleifera; conditions: PFAS 50 mg/L
Experimental: ^19F NMR. ^19F NMR measurements were taken on a Bruker AVANCE III 500 NMR. 3,000 scans were run for each sample with a 1 second relaxation delay. TFMAA was added to each sample as an internal standard. 90% H2O and 10% D20 were used for instrument lock and calibration. PFAS concentrations remained constant at 50 mg/L. […] of sample was used for each run. ^19F NMR spectra were obtained with a spectral width 113636.36 Hz and spectral frequency 470.57 MHz.
Spectrum were analyzed via MestreNova software for phase correction and baseline correction. Peak picking was completed automatically by the software. […] Intensities were normalized by TFMAA peak area at approximately −64.9 ppm. NMR data is included in the Supporting Information. The NMR peak height ratio, B, can be used to determine the relative ranking of binding affinities between protein-ligand complexes. B was calculated using Equation (1)
Where lb is the sum of ligand NMR heights in the presence of protein and lh is the sum of free ligand NMR heights.
^19F NMR. NMR can be used to study protein-ligand interactions by examining changes in peak height, peak width, and chemical shifts. A decrease in peak height indicates the formation of a protein-ligand complex. Previous literature has used ^19F NMR to look at PFAS binding to albumin proteins. In this work, PFAS (ligand) concentrations remain constant while MO protein concentrations were varied.

[2] = when protein concentrations increase

Compound	removal of PFOA and PFOS by coagulation [1]	binding affinity to MO protein (NMR peak height ratio, B) (MO protein; [2])	binding affinity to MO protein (NMR peak height ratio, B) (MO protein; lower protein concentrations)
[Cl][Fe]([Cl])[Cl] [FeCl3, ferric chloride]	about 20%		
O=C(O)C(F)(F)C(F)(F)C(F)(F)C(F)(F)C(F)(F)C(F)(F)C(F)(F)F [PFOA, perfluorooctanoic acid]		similar	
O=S(=O)(O)C(F)(F)C(F)(F)C(F)(F)C(F)(F)C(F)(F)C(F)(F)C(F)(F)C(F)(F)F [PFOS, perfluorooctanesulfonic acid]		similar	stronger affinity than MO-PFOA
alum	about 20%		
